Where two headings read alike, the source gives them in different places.
Columns and labels:
Botrytis cinerea = assay: Fungicidal activity against Botrytis cinerea, mycelial growth inhibition on PDA plate; type: cell-based
Procedure: (§1) Bioassay method: Stock solution of every test compound was prepared in an appropriate solvent such as N,N-dimethylformamide (DMF), and then diluted to the required test concentrations with sterile water containing 0.1% Tween 80; Pipetted 3 mL of test solution to 27 mL of potato dextrose agar (PDA) medium at 45° C. and poured into a Petri dish to prepare a plate after shaking thoroughly; 6 mm of diameter of fungi cake from the edge of 7-day-old […] colony was inoculated on the central of the plate, wherein mycelium facing down, and cultured in the culture tank at 28° C. The diameter of fungi spread was calculated 4 days later using the control group tested with the diluent only. Test was run 4 times. Data were subjected to EXCEL statistical software analysis and the growth inhibition of the tested compound was calculated according to the corresponding control, the activity was rated on the basis of percentage of growth inhibition using the following rating system: A, inhibition (%)>90; B, 90≧inhibition (%)>70; C, 70≧inhibition (%)>50; D, inhibition (%)≦50.
Fungicidal activities against Botrytis cinerea of compounds represented by the general formula (I) were evaluated with the corresponding method in Example 18, and some of the test results are shown in Table 6 to Table 8.

Abutilon = assay: Herbicidal activity, pre-emergence pot test, Abutilon; type: in vivo, Abutilon theophrasti; conditions: 150 g a.i./mu, 15 to 25 days after treatment
Source text: (§2) Bioassay method: (1) Plastic pots (about 64 cm^2) were filled with soil and placed in a stainless steel basin, seeds with the same size and plumpness of monocotyledonous weeds such as Digitaria sanguinalis, Echinochloa crus-galli, Setaria viridis and Dicotyledonous weeds such as Abutilon theophrasti or Stelleria media or Solanum nigrum, Chenopodium album, Amaranthus ascedene or Amaranthus retroflexus were sown in one-third of the pot area with the soil depth of 1 cm in two different pots separately and grown to the desired leaf stage in a greenhouse wherein water is added to the stainless steel basin until the full infiltration of soils from the bottom of pots; (2) Test compounds represented by the general formula (I) were formulated by using N,N-dimethylformamide as solvent and a small amount of Tween 80 as emulsification agent, then diluted to the required test concentrations with water, using the control group tested with corresponding solvent and water only; (3) the required test solutions were applied for pre-emergence treatment 24 hr after the weeds were sown, for postemergence treatment, monocotyledonous weeds were treated at the 1-leaf stage and dicotyledonous weeds were treated at 2 leaf stage; (4) the pre- and postemergence application rates were 150 g a.i./mu, using the control group with corresponding solvent or water respectively; (5) Treatments were kept in greenhouse for cultivation; (6) Herbicidal activities were evaluated visually 15 to 25 days after treatment, on the basis of the survey results, the weed control effect can be calculated by the following formula: efficacy (%)=(the height of the weed in the control group−the height of the weed in the test group) (the height of the weed in the control group).

Amaranthus spinosus = assay: Herbicidal activity, pre-emergence pot test, Amaranthus spinosus; type: in vivo; conditions: 150 g a.i./mu, 15 to 25 days after treatment
Source text: as §2

Chenopodium album = assay: Herbicidal activity, pre-emergence pot test, Chenopodium album; type: in vivo; conditions: 150 g a.i./mu, 15 to 25 days after treatment
Source text: as §2

Digitaria sanguinalis = assay: Herbicidal activity, pre-emergence pot test, Digitaria sanguinalis; type: in vivo; conditions: 150 g a.i./mu, 15 to 25 days after treatment
Source text: as §2

Echinochloa crus-galli = assay: Herbicidal activity, pre-emergence pot test, Echinochloa crus-galli; type: in vivo; conditions: 150 g a.i./mu, 15 to 25 days after treatment
Source text: as §2

Setaria viridis = assay: Herbicidal activity, pre-emergence pot test, Setaria viridis; type: in vivo; conditions: 150 g a.i./mu, 15 to 25 days after treatment
Source text: as §2

Sclerotinia sclerotiorum = assay: Fungicidal activity against Sclerotinia sclerotiorum, mycelial growth inhibition on PDA plate; type: cell-based
Procedure: as §1

Alternaria alternata = assay: Fungicidal activity against Alternaria alternata, mycelial growth inhibition on PDA plate; type: cell-based; conditions: Alternaria alternata; 25 mg/L; read-out: activities against Alternaria alternata (growth inhibition rating)
Procedure: as §1
Fungicidal activities against Alternaria alternata of compounds represented by the general formula (I) were evaluated with the corresponding method in Example 18, and some of the test results are shown in Table 9 to Table 10.

Tetranychus urticae = assay: Acaricidal activity against Tetranychus urticae, dipping of horsebean seedlings; type: in vivo
Procedure: Bioassay method: Stock solution of every test compound was prepared in an appropriate solvent such as N,N-dimethylformamide, and a small amount of Tween 80 was added as emulsification agent, then diluted to the required test concentrations with distilled water, using the control group tested with distilled water only. 100 to 200 adults of Tetranychus urticae were transferred to well-growing horsebean seedlings and 24 hr later, horsebean seedlings with Tetranychus urticae were dipped in the test solution for 10 s, then allowed to dry with filter paper and transplanted to the beaker containing water and kept in a room for normal cultivation. Each assay contained three replications, and results were averaged. Mortality was assessed 24 hr after the treatment. The activity was rated on the basis of mortality using the following rating system: A, mortality>90; B, 90≧mortality>70; C, 70≧mortality>50; D, mortality≦50.

Cercospora arachidicola = assay: Fungicidal activity against Cercospora arachidicola; type: cell-based; conditions: 25 mg/L
Procedure: as §1

Alternaria mali = assay: Fungicidal activity against Alternaria mali; type: cell-based; conditions: 25 mg/L
Procedure: as §1

Sphaceloma ampelinum = assay: Fungicidal activity against Sphaceloma ampelinum; type: cell-based; conditions: 25 mg/L
Procedure: as §1

Marssonina coronaria = assay: Fungicidal activity against Marssonina coronaria; type: cell-based; conditions: 25 mg/L
Procedure: as §1

Fusarium oxysporum = assay: Fungicidal activity against Fusarium oxysporum; type: cell-based; conditions: 25 mg/L
Procedure: as §1

Alternaria solani = assay: Fungicidal activity against Alternaria solani; type: cell-based; conditions: 25 mg/L
Procedure: as §1

## CCN(Cc1cnc(Cl)s1)c1nc(SC)ccc1[N+](=O)[O-] [Compound 18]
Botrytis cinerea; 25 mg/L
  activities against Botrytis cinerea (growth inhibition rating): B (B, 90≧inhibition (%)>70)
Abutilon
  herbicidal activity (efficacy), Abutilon: 0%
Amaranthus spinosus
  herbicidal activity (efficacy), Amaranthus spinosus: 0%
Chenopodium album
  herbicidal activity (efficacy), Chenopodium album: 0%
Digitaria sanguinalis
  herbicidal activity (efficacy), Digitaria sanguinalis: 90%
Echinochloa crus-galli
  herbicidal activity (efficacy), Echinochloa crus-galli: 80%
Setaria viridis
  herbicidal activity (efficacy), Setaria viridis: 80%

## CNc1ccc([N+](=O)[O-])c(N(C)Cc2cnc(Cl)s2)n1 [Compound 20]
Abutilon
  herbicidal activity (efficacy), Abutilon: 70%
Amaranthus spinosus
  herbicidal activity (efficacy), Amaranthus spinosus: 90%
Chenopodium album
  herbicidal activity (efficacy), Chenopodium album: 90%
Digitaria sanguinalis
  herbicidal activity (efficacy), Digitaria sanguinalis: 70%
Echinochloa crus-galli
  herbicidal activity (efficacy), Echinochloa crus-galli: 70%
Setaria viridis
  herbicidal activity (efficacy), Setaria viridis: 70%

## CN(C)c1ccc([N+](=O)[O-])c(N(C)Cc2cnc(Cl)s2)n1 [Compound 23]
Botrytis cinerea; 25 mg/L
  activities against Botrytis cinerea (growth inhibition rating): B (B, 90≧inhibition (%)>70)
Abutilon
  herbicidal activity (efficacy), Abutilon: 70%
Amaranthus spinosus
  herbicidal activity (efficacy), Amaranthus spinosus: 80%
Chenopodium album
  herbicidal activity (efficacy), Chenopodium album: 80%
Digitaria sanguinalis
  herbicidal activity (efficacy), Digitaria sanguinalis: 0%
Echinochloa crus-galli
  herbicidal activity (efficacy), Echinochloa crus-galli: 0%
Setaria viridis
  herbicidal activity (efficacy), Setaria viridis: 0%

## C#CCOc1ccc([N+](=O)[O-])c(N(CC)Cc2cnc(Cl)s2)n1 [Compound 25, 6-propargyloxy-N-((2-chlorothiazole-5-yl)methyl)-N-ethyl-3-nitropyridine-2-amine]
Sclerotinia sclerotiorum; Sclerotinia sclerotiorum, 1.25 mg/L, Table 4, read-out: activities against Sclerotinia sclerotiorum (growth inhibition)
  inhibition at 1.25 µg/mL: 78%
Sclerotinia sclerotiorum; Sclerotinia sclerotiorum, 2.5 mg/L, Table 4, read-out: activities against Sclerotinia sclerotiorum (growth inhibition)
  inhibition at 2.5 µg/mL: 84%
Sclerotinia sclerotiorum; Sclerotinia sclerotiorum, 5 mg/L, Table 4, read-out: activities against Sclerotinia sclerotiorum (growth inhibition)
  inhibition at 5 µg/mL: 90%
Sclerotinia sclerotiorum; Sclerotinia sclerotiorum, 10 mg/L, Table 4, read-out: activities against Sclerotinia sclerotiorum (growth inhibition)
  inhibition at 10 µg/mL: 96%
Sclerotinia sclerotiorum; Sclerotinia sclerotiorum, 25 mg/L, read-out: activities against Sclerotinia sclerotiorum (growth inhibition rating)
  inhibition at 25 µg/mL: > 90%
Botrytis cinerea; Botrytis cinerea, 1.25 mg/L, Table 7, read-out: activities against Botrytis cinerea (growth inhibition)
  inhibition at 1.25 µg/mL: 85%
Botrytis cinerea; Botrytis cinerea, 2.5 mg/L, Table 7, read-out: activities against Botrytis cinerea (growth inhibition)
  inhibition at 2.5 µg/mL: 90%
Botrytis cinerea; Botrytis cinerea, 5 mg/L, Table 7, read-out: activities against Botrytis cinerea (growth inhibition)
  inhibition at 5 µg/mL: 93%
Botrytis cinerea; Botrytis cinerea, 10 mg/L, Table 7, read-out: activities against Botrytis cinerea (growth inhibition)
  inhibition at 10 µg/mL: 97%
Botrytis cinerea; Botrytis cinerea, 25 mg/L, read-out: activities against Botrytis cinerea (growth inhibition rating)
  inhibition at 25 µg/mL: > 90%
Alternaria alternata
  inhibition at 25 µg/mL: 70 to 90%
Tetranychus urticae; Tetranychus urticae, 24 h, read-out: activities against Tetranychus urticae (mortality rating)
  mortality at 500 µg/mL: 50 to 70%

## C=CCOc1ccc([N+](=O)[O-])c(N(CC)Cc2cnc(Cl)s2)n1 [Compound 29, 6-allyloxy-N-((2-chlorothiazole-5-yl)methyl)-N-ethyl-nitropyridine-2-amine]
Sclerotinia sclerotiorum; 1.25 mg/L, Table 4
  activities against Sclerotinia sclerotiorum (growth inhibition): 63%
Sclerotinia sclerotiorum; 2.5 mg/L, Table 4
  activities against Sclerotinia sclerotiorum (growth inhibition): 72%
Sclerotinia sclerotiorum; 5 mg/L, Table 4
  activities against Sclerotinia sclerotiorum (growth inhibition): 79%
Sclerotinia sclerotiorum; 10 mg/L, Table 4
  activities against Sclerotinia sclerotiorum (growth inhibition): 83%
Sclerotinia sclerotiorum; 25 mg/L
  activities against Sclerotinia sclerotiorum (growth inhibition rating): A (A, inhibition (%)>90)
Botrytis cinerea; 1.25 mg/L, Table 7
  activities against Botrytis cinerea (growth inhibition): 62%
Botrytis cinerea; 2.5 mg/L, Table 7
  activities against Botrytis cinerea (growth inhibition): 67%
Botrytis cinerea; 5 mg/L, Table 7
  activities against Botrytis cinerea (growth inhibition): 73%
Botrytis cinerea; 10 mg/L, Table 7
  activities against Botrytis cinerea (growth inhibition): 80%
Botrytis cinerea; 25 mg/L
  activities against Botrytis cinerea (growth inhibition rating): A (A, inhibition (%)>90)
Tetranychus urticae; 500 mg/L, mortality 24 hr after the treatment
  activities against Tetranychus urticae (mortality rating): C (C, 70≧mortality>50)

## CC12CC1(C)C(=O)N(c1cc(Cl)cc(Cl)c1)C2=O (stereo not shown) [Procymidone, reference compound]
Sclerotinia sclerotiorum; Sclerotinia sclerotiorum, 0.1562 mg/L, Table 5, read-out: activities against Sclerotinia sclerotiorum (growth inhibition)
  inhibition at 0.1562 µg/mL: 34%
Sclerotinia sclerotiorum; Sclerotinia sclerotiorum, 0.3125 mg/L, Table 5, read-out: activities against Sclerotinia sclerotiorum (growth inhibition)
  inhibition at 0.3125 µg/mL: 63%
Sclerotinia sclerotiorum; Sclerotinia sclerotiorum, 0.625 mg/L, Table 5, read-out: activities against Sclerotinia sclerotiorum (growth inhibition)
  inhibition at 0.625 µg/mL: 66%
Sclerotinia sclerotiorum; Sclerotinia sclerotiorum, 1.255 mg/L, Table 5, read-out: activities against Sclerotinia sclerotiorum (growth inhibition)
  inhibition at 1.255 µg/mL: 76%
Sclerotinia sclerotiorum; Sclerotinia sclerotiorum, 2.5 mg/L, Table 5, read-out: activities against Sclerotinia sclerotiorum (growth inhibition)
  inhibition at 2.5 µg/mL: 79%
Sclerotinia sclerotiorum; Sclerotinia sclerotiorum, 5 mg/L, Table 5, read-out: activities against Sclerotinia sclerotiorum (growth inhibition)
  inhibition at 5 µg/mL: 93%
Botrytis cinerea; Botrytis cinerea, 0.1562 mg/L, Table 8, read-out: activities against Botrytis cinerea (growth inhibition)
  inhibition at 0.1562 µg/mL: 46%
Botrytis cinerea; Botrytis cinerea, 0.3125 mg/L, Table 8, read-out: activities against Botrytis cinerea (growth inhibition)
  inhibition at 0.3125 µg/mL: 67%
Botrytis cinerea; Botrytis cinerea, 0.625 mg/L, Table 8, read-out: activities against Botrytis cinerea (growth inhibition)
  inhibition at 0.625 µg/mL: 75%
Botrytis cinerea; Botrytis cinerea, 1.255 mg/L, Table 8, read-out: activities against Botrytis cinerea (growth inhibition)
  inhibition at 1.255 µg/mL: 83%
Botrytis cinerea; Botrytis cinerea, 2.5 mg/L, Table 8, read-out: activities against Botrytis cinerea (growth inhibition)
  inhibition at 2.5 µg/mL: 93%
Botrytis cinerea; Botrytis cinerea, 5 mg/L, Table 8, read-out: activities against Botrytis cinerea (growth inhibition)
  inhibition at 5 µg/mL: 100%
Cercospora arachidicola
  activity against Cercospora arachidicola: 85%
Alternaria mali
  activity against Alternaria mali: 82%
Sphaceloma ampelinum
  activity against Sphaceloma ampelinum: 96%
Marssonina coronaria
  activity against Marssonina coronaria: 75%
Fusarium oxysporum
  activity against Fusarium oxysporum: 38%
Alternaria solani
  activity against Alternaria solani: 94%
